Measured values as given in patent US20060135522A1, “Tricyclic delta-opioid modulators” (priority 2004, published 2006).

target: T1, delta opioid receptor (Rattus norvegicus, UniProt P33533); assay: Rat Brain Delta Opioid Receptor Binding Assay; conditions: not given
T1 construct: from tissue; host or cells: forebrain of male Wistar rats (particulate membrane preparation)
Method: Procedure: Male, Wistar rats (150-250 g, VAF, Charles River, Kingston, N.Y.) were killed by CO2, and their brains were removed and placed immediately in ice cold Tris HCl buffer (50 mM, pH 7.4). The forebrains were separated from the remainder of the brain by a coronal transection, beginning dorsally at the colliculi and passing ventrally through the midbrain-pontine junction. After dissection, the forebrains were homogenized in Tris buffer in a Teflon®-glass homogenizer. The homogenate was diluted to a concentration of 1 g of forebrain tissue per 80 mL Tris and centrifuged at 39,000×g for 10 min. The pellet was resuspended in the same volume of Tris buffer containing 5 mM MgCl2 with several brief pulses from a Polytron homogenizer. This particulate preparation was used for the delta opioid binding assays. Following incubation with the delta selective peptide ligand ˜4 nM [^3H]DPDPE or 0.15 nM [^3H]naltrindole at 25° C. for 2.5 h in a 96-well plate with total volume of […], the plate contents were filtered through Wallac filtermat B sheets on a Tomtec 96-well harvester. The filters were rinsed three times with 2 mL of 10 mM HEPES (pH 7.4), and dried in a 650 W microwave oven for 1.75 min twice. To each sample area 2×50 μL of Betaplate Scint scintillation fluid (LKB) was added and the radioactivity was quantified on a LKB (Wallac) 1205 BetaPlate liquid scintillation counter.
Analysis: The data from the scintillation counter was used to calculate either the % inhibition compared to control binding (when only a single concentration of test compound was evaluated) or a Ki value (when a range of concentrations was tested). Percent inhibition was calculated as: [(total dpm-test compound dpm)/(total dpm-nonspecific dpm)]*100. Kd and Ki values were calculated using GraphPad PRISM data analysis program.

T1 sequence (P33533 whole entry): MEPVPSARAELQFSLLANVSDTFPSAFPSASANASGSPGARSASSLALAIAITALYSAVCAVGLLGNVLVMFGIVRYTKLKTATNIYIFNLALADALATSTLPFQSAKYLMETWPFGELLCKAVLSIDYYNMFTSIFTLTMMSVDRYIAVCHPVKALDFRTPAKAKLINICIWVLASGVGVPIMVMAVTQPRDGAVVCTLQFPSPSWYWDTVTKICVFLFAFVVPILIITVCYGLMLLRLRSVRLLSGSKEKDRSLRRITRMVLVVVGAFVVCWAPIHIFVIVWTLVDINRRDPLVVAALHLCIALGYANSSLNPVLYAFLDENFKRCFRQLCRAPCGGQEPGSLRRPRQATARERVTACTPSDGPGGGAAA

SMILES	Ki [nM]
C=CCN1CCC(C2c3ccc(-c4cccnc4)cc3Oc3c(O)cccc32)CC1 (stereo not shown) [6i, 9-(1-Allyl-piperidin-4-yl)-6-pyridin-3-yl-9H-xanthen-4-ol]	27.5
Oc1cccc2c1Oc1cc(-c3nnn[nH]3)ccc1C2C1CCNCC1 (stereo not shown) [4r, 9-Piperidin-4-yl-6-(1H-tetrazol-5-yl)-9H-xanthen-4-ol]	14
Oc1cccc2c1Oc1cc(-c3cccnc3)ccc1C2C1CCN(Cc2ccccc2)CC1 (stereo not shown) [5i, 9-(1-Benzyl-piperidin-4-yl)-6-pyridin-3-yl-9H-xanthen-4-ol]	94
CCN(CC)C(=N)c1ccc2c(c1)Oc1ccccc1C2C1CCN(Cc2ccoc2)CC1 (stereo not shown) [3p, N,N-Diethyl-9-(1-furan-3-ylmethyl-piperidin-4-yl)-9H-xanthene-3-carboxamidine]	16.1
COc1cccc2c1Sc1cc(-c3cccnc3)ccc1C2C1CCNCC1 (stereo not shown) [9q, 3-(5-Methoxy-9-piperidin-4-yl-9H-thioxanthen-3-yl)-pyridine]	87.8
Oc1cccc2c1Oc1cc(-c3cccnc3)ccc1C2C1CCN(Cc2cccs2)CC1 (stereo not shown) [4i, 6-Pyridin-3-yl-9-(1-thiophen-2-ylmethyl-piperidin-4-yl)-9H-xanthen-4-ol]	96.7
Oc1cccc2c1Sc1cc(-c3ccncc3)ccc1C2C1CCNCC1 (stereo not shown) [12q, 9-Piperidin-4-yl-6-pyridin-4-yl-9H-thioxanthen-4-ol]	0.7
Oc1cccc2c1Sc1cc(-c3cccnc3)ccc1C2C1CCNCC1 (stereo not shown) [10q, 9-Piperidin-4-yl-6-pyridin-3-yl-9H-thioxanthen-4-ol]	0.2
COc1cccc2c1Sc1cc(-c3ccncc3)ccc1C2C1CCNCC1 (stereo not shown) [11q, 4-(5-Methoxy-9-piperidin-4-yl-9H-thioxanthen-3-yl)-pyridine]	68.1
CC(=O)Nc1ccccc1-c1ccc2c(c1)Sc1c(O)cccc1C2C1CCN(Cc2ccccn2)CC1 (stereo not shown) [19q, N-{2-[5-Hydroxy-9-(1-pyridin-2-ylmethyl-piperidin-4-yl)-9H-thioxanthen-3-yl]-phenyl}-acetamide]	0.1
Oc1cccc2c1Sc1cc(-c3ccncc3)ccc1C2C1CCN(Cc2ccccn2)CC1 (stereo not shown) [15q, 6-Pyridin-4-yl-9-(1-pyridin-2-ylmethyl-piperidin-4-yl)-9H-thioxanthen-4-ol]	0.1
CC(=O)Nc1ccccc1-c1ccc2c(c1)Oc1c(O)cccc1C2C1CCN(Cc2cccs2)CC1 (stereo not shown) [6e, N-{2-[5-Hydroxy-9-(1-thiophen-2-ylmethyl-piperidin-4-yl)-9H-xanthen-3-yl]-phenyl}-acetamide]	0.1
CC(=O)Nc1ccccc1-c1ccc2c(c1)Sc1c(O)cccc1C2C1CCNCC1 (stereo not shown) [14q, N-[2-(5-Hydroxy-9-piperidin-4-yl-9H-thioxanthen-3-yl)-phenyl]-acetamide]	0.2
CC(=O)Nc1ccccc1-c1ccc2c(c1)Oc1c(O)cccc1C2C1CCN(Cc2ccccn2)CC1 (stereo not shown) [5e, N-{2-[5-Hydroxy-9-(1-pyridin-2-ylmethyl-piperidin-4-yl)-9H-xanthen-3-yl]-phenyl}-acetamide]	0.1
Oc1cccc2c1Sc1cc(-c3cccnc3)ccc1C2C1CCN(Cc2ccccn2)CC1 (stereo not shown) [18q, 6-Pyridin-3-yl-9-(1-pyridin-2-ylmethyl-piperidin-4-yl)-9H-thioxanthen-4-ol]	0.4

same assay, conditions: rat forebrain membranes; [3H]DPDPE or [3H]naltrindole, 25° C., 2.5 h; read-out: delta (Ki)

SMILES	Ki [nM]
COc1cccc2c1Sc1cc(-c3ccccc3NC(C)=O)ccc1C2C1CCNCC1 (stereo not shown) [13q, N-[2-(5-Methoxy-9-piperidin-4-yl-9H-thioxanthen-3-yl)-phenyl]-acetamide]	110
C=CCN1CCC(C2c3ccccc3Oc3cc(C(=O)N4CC[C@H](O)C4)ccc32)CC1 (stereo partly drawn) [7n, [9-(1-Allyl-piperidin-4-yl)-9H-xanthen-3-yl]-(3-(S)-hydroxy-pyrrolidin-1-yl)-methanone]	9230
C=CCN1CCC(C2c3ccc(-c4ccccc4NC(C)=O)cc3Sc3c(O)cccc32)CC1 (stereo not shown) [16q, N-{2-[9-(1-Allyl-piperidin-4-yl)-5-hydroxy-9H-thioxanthen-3-yl]-phenyl}-acetamide]	121
N#Cc1ccc2c(c1)Oc1c(O)cccc1C2C1CCNCC1 (stereo not shown) [5r, 5-Hydroxy-9-piperidin-4-yl-9H-xanthene-3-carbonitrile]	166
